Reference: ChEMBL document CHEMBL4145469, “Part II: New candidates of pyrazole-benzimidazole conjugates as checkpoint kinase 2 (Chk2) inhibitors” (Eur J Med Chem, 2018)

Experiment: Toxicity in Sprague-Dawley rat assessed as mortality administered as po single dose measured up to 1 month post dose
Format: organism-based
Conditions: in vivo

In the case of `Cc1nn(-c2ccccc2)c(Oc2ccc(-c3nc4cc([N+](=O)[O-])ccc4[nH]3)cc2)c1/C=N/NC(N)=O`, the LD50 at 1 month was 500 mg/kg.
